Assay results reported in ChEMBL document CHEMBL4819006, “1,4,6-Trisubstituted imidazo[4,5-c]pyridines as inhibitors of Bruton's tyrosine kinase” (Eur J Med Chem, 2021).
The source made the active and inactive calls. The rule behind the calls is not given here.

Tests used:
K562 = test: Growth inhibition of human K562 cells assessed as inhibition of cell growth measured after 72 hrs by resazurin dye based assay; assay type: functional
Ramos = test: Growth inhibition of human Ramos cells assessed as inhibition of cell growth measured after 72 hrs by resazurin dye based assay; assay type: functional
Rec1 = test: Growth inhibition of human REC1 cells assessed as inhibition of cell growth measured after 72 hrs by resazurin dye based assay; assay type: functional
[1] = Growth inhibition of human patient derived UPF7U cells assessed as inhibition of cell growth measured after 72 hrs by resazurin dye based assay; assay type: functional
[2] = Growth inhibition of human patient derived UPF1H cells assessed as inhibition of cell growth measured after 72 hrs by resazurin dye based assay; assay type: functional
[3] = molecular target: T1, Tyrosine-protein kinase BTK (Homo sapiens, UniProt Q06187); test: Inhibition of human BTK assessed as residual activity using poly (Glu,Tyr) as substrate in presence of ATP and Ci(gamma33-P) ATP at 1 uM measured by microplate reader assay
[4] = molecular target: T1, Tyrosine-protein kinase BTK; test: Inhibition of human BTK using poly (Glu,Tyr) as substrate in presence of ATP and Ci(gamma33-P) ATP measured by microplate reader assay
[5] = molecular target: Cyclin-dependent kinase 2 (Homo sapiens) (UniProt P24941); test: Inhibition of GST-tagged CDK2/cyclinE (unknown origin) expressed in Sf9 cells assessed as residual activity using histone H1 as substrate in presence of ATP and Ci(gamma33-P) ATP at 1 uM measured by microplate reader assay
[6] = molecular target: Tyrosine-protein kinase SYK (Homo sapiens) (UniProt P43405); test: Inhibition of human recombinant GST-tagged SYK (M1 to N635 residues) assessed as residual activity using poly (Glu,Tyr) as substrate in presence of ATP and Ci(gamma33-P) ATP at 1 uM measured by microplate reader assay
[7] = molecular target: Tyrosine-protein kinase ABL1 (Homo sapiens) (UniProt P00519); test: Inhibition of Abl (unknown origin) expressed in Sf9 cells assessed as residual activity using GGEAIYAAPFKK peptide as substrate in presence of ATP and Ci(gamma33-P)ATP at 1 uM measured by microplate reader
[8] = molecular target: Receptor-type tyrosine-protein kinase FLT3 (Homo sapiens) (UniProt P36888); test: Inhibition of human recombinant […] N-terminal GST-tagged FLT3 (R571 to S993 residues) assessed as residual activity using poly (Ala, Glu, Lys, Tyr) hydrobromide as substrate in presence of ATP and Ci(gamma33-P) ATP at 1 uM measured by microplate reader assay
[9] = molecular target: Tyrosine-protein kinase Fyn (Homo sapiens) (UniProt P06241); test: Inhibition of human recombinant full length GST-tagged FYN (M1 to L537 residues) assessed as residual activity using poly (Glu,Tyr) as substrate in presence of ATP and Ci(gamma33-P) ATP at 1 uM measured by microplate reader assay
[10] = molecular target: T1, Tyrosine-protein kinase BTK; test: Inhibition of BTK in human Ramos cells assessed as reduction of IgM stimulated BTK ([…]) phosphorylation at 1 to 5 uM measured after 24 hrs by western blot assay; assay type: cell-based; details: dose 1-5 µM
[11] = molecular target: Mitogen-activated protein kinase; ERK1/ERK2 (Homo sapiens) (UniProt P27361+P28482); test: Inhibition of ERK1/2 in human Ramos cells assessed as reduction in ERK1/2 phosphorylation at 1 to 5 uM measured after 24 hrs by western blot assay; assay type: cell-based; details: dose 1-5 µM
[12] = molecular target: T1, Tyrosine-protein kinase BTK; test: Inhibition of BTK in human Ramos cells assessed as reduction of IgM stimulated PLCgamma2 (Y1217) phosphorylation at 1 to 5 uM measured after 24 hrs by western blot assay; assay type: cell-based; details: dose 1-5 µM

Sequence of Tyrosine-protein kinase Fyn (Homo sapiens) (P06241 2-537 limits assumed): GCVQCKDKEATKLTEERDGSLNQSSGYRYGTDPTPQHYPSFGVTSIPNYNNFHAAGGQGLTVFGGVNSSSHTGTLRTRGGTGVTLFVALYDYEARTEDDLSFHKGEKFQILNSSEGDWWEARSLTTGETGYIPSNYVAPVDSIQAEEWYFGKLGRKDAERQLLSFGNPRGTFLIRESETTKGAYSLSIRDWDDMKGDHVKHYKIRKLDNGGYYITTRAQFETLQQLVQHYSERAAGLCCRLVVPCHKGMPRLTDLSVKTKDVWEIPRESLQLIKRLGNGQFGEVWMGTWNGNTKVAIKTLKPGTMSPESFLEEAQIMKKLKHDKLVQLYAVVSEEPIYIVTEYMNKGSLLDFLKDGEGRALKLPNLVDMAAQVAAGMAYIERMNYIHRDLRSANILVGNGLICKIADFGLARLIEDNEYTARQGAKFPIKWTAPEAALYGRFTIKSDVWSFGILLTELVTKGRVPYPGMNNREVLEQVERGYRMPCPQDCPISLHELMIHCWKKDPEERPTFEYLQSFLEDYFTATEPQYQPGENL
T1 sequence (Q06187 whole entry): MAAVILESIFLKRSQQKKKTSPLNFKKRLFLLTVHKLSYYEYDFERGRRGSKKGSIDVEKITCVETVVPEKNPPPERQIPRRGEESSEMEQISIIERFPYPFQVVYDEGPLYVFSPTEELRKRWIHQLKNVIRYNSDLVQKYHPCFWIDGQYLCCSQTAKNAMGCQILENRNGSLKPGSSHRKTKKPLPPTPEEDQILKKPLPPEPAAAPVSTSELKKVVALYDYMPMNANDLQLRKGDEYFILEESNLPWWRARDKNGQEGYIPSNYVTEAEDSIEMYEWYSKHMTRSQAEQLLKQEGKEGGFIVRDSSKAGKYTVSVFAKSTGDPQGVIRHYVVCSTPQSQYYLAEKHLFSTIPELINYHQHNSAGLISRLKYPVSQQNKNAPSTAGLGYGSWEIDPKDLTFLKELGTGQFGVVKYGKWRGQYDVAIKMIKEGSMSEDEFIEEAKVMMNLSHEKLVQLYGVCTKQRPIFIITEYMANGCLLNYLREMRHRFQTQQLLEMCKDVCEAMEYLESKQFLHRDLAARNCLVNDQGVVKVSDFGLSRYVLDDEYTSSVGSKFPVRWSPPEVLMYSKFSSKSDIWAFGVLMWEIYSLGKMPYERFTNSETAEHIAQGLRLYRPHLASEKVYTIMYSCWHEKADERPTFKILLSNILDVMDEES
Sequence of Receptor-type tyrosine-protein kinase FLT3 (Homo sapiens) (P36888 whole entry, the tested form may be a part): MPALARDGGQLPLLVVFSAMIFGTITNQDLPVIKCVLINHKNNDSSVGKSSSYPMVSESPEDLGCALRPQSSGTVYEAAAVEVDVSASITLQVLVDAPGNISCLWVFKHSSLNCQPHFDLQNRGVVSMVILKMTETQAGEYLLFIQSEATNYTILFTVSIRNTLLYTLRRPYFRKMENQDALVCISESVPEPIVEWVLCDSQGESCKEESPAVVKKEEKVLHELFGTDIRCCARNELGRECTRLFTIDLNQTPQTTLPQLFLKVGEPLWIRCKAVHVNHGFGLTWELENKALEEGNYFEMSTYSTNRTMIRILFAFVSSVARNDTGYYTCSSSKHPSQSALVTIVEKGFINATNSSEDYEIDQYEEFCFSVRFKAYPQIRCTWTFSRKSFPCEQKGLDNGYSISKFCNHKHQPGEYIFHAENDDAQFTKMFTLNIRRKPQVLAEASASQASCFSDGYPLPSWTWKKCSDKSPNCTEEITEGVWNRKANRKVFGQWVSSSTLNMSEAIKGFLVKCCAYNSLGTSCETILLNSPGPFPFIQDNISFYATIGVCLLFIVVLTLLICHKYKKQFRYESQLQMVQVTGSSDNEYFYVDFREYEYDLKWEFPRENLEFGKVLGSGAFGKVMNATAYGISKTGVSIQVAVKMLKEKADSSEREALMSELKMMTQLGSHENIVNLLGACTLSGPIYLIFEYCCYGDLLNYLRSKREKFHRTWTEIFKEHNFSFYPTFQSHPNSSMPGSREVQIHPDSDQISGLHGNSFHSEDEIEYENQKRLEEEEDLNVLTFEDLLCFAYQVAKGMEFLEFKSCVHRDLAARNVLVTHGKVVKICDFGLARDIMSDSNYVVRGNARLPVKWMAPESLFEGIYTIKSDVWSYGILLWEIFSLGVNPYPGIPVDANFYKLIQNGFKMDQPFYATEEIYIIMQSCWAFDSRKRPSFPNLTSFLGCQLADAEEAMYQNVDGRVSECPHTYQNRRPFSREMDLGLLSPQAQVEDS
Sequence of Tyrosine-protein kinase ABL1 (Homo sapiens) (P00519 whole entry, the tested form may be a part): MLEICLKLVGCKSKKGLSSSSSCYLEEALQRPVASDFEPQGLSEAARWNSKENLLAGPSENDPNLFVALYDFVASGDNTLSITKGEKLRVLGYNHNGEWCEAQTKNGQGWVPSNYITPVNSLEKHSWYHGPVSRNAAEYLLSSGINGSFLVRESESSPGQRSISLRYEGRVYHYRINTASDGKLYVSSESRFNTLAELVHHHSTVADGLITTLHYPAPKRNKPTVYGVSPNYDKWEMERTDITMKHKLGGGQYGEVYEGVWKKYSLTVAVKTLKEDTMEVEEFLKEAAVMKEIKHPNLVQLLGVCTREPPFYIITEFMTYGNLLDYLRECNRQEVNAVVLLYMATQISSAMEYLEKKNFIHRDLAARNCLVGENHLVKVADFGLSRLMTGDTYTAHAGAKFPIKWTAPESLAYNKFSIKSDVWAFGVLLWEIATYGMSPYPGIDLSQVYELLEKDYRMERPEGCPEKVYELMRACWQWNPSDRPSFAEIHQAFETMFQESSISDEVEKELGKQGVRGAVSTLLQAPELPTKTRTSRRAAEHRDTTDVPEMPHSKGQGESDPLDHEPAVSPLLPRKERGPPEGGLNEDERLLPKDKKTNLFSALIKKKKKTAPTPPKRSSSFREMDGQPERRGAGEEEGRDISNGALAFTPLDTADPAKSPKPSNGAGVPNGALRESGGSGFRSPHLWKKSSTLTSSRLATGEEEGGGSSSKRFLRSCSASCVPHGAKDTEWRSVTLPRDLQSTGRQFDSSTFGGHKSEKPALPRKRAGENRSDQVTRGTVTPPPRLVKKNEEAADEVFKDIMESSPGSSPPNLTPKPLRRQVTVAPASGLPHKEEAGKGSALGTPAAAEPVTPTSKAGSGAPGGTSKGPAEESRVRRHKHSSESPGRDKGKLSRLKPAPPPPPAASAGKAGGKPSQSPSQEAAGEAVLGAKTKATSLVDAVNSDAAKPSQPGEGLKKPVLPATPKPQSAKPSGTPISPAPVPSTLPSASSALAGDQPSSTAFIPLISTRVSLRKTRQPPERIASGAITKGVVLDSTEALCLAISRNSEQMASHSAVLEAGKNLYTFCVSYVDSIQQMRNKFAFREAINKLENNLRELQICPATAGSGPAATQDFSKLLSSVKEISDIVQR
Sequence of Mitogen-activated protein kinase; ERK1/ERK2 (Homo sapiens) (P27361 whole entry, looked up): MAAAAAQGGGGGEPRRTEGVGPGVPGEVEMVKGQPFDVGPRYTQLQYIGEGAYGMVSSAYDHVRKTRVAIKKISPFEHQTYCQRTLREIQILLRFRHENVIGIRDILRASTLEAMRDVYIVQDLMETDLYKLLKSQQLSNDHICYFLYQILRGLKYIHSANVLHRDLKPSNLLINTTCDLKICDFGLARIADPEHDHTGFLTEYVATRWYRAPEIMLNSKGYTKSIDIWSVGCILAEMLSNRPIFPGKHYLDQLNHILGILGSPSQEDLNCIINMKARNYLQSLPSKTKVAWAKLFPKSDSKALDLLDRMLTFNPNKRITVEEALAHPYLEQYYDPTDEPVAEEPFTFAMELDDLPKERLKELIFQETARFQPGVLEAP
Sequence of Mitogen-activated protein kinase; ERK1/ERK2 (Homo sapiens) (P28482 whole entry, looked up): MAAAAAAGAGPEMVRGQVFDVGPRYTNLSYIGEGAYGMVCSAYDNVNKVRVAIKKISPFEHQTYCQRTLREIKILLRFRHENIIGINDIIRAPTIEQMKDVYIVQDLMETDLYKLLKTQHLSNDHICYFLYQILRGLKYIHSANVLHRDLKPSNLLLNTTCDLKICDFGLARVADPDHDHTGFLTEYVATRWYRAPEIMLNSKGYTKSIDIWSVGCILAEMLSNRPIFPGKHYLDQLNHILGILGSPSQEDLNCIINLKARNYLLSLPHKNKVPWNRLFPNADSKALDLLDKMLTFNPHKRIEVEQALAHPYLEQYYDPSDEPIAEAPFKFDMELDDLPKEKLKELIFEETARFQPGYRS

SMILES	GI50 (K562; Homo sapiens, K562) [µM]	GI50 (Ramos; Homo sapiens, Ramos) [µM]	GI50 (Rec1; Homo sapiens, Rec1) [µM]	GI50 ([1]; Homo sapiens, UPF7U) [µM]	GI50 ([2]; Homo sapiens, UPF1H) [µM]	Activity [3] [%]	IC50 [4] [nM]	Activity [5] [%]	Activity [6] [%]	Activity [7] [%]	Activity [8] [%]	Activity [9] [%]	inhibition [10]	inhibition [11]	inhibition [12]	GI50 (K562) [µM]	GI50 (Ramos) [µM]	GI50 (Rec1) [µM]	GI50 [1] [µM]	GI50 [2] [µM]
Cc1cccc(-c2cc(Nc3ccc(C(=O)N4CCOCC4)cc3)c3nc[nH]c3n2)c1C	> 50	> 50	> 50	> 50	> 50															
COc1ccc(Cn2cnc3c(Nc4ccc(C(=O)N5CCOCC5)cc4)nc(-c4cccc(NC(=O)c5ccc(C(C)(C)C)cc5)c4C)cc32)cc1	> 50	> 50	> 50	> 50	> 50	71.2	> 10000	96.7	82.3	95.1	42.7	73.9								
Cc1c(NC(=O)c2ncc[nH]2)cccc1-c1cc2[nH]cnc2c(Nc2ccc(C(=O)N3CCOCC3)cc2)n1	> 25	> 25	> 25	> 25	> 12.5	24.2	41	93.6	66	39.4	33.3	56.3								
Cc1c(NC(=O)C2CCCCC2)cccc1-c1cc2[nH]cnc2c(Nc2ccc(C(=O)N3CCOCC3)cc2)n1	49	47.2	> 50	> 50	44.1	61.5	932	93	43.3		75.7	95.1	Active	inactive	Active					
Cc1c(NC(=O)c2nc3ccccc3[nH]2)cccc1-c1cc2[nH]cnc2c(Nc2ccc(C(=O)N3CCOCC3)cc2)n1	10	10.1	> 12.5	> 12.5	> 12.5	20.9	35	97.9	92	78	53.9	64.7	Active		Active					
CC(=O)Nc1cccc(-c2cc3[nH]cnc3c(Nc3ccc(C(=O)N4CCOCC4)cc3)n2)c1C	> 50	> 50	> 50	> 50	35.1	38.8	545	94.5	61.7	52.4	95	84								
Cc1c(NC(=O)c2ccc(C(C)(C)C)cc2)cccc1-c1cc2c(ncn2C)c(Nc2ccc(C(=O)N3CCOCC3)cc2)n1	57.3	12.2	17.7	35.6	25.6	39.7	527	95.6	74.3	> 100	> 100	68.8								
C=CC(=O)N1CCC[C@H](n2nc(-c3ccc(Oc4ccccc4)cc3)c3c(N)ncnc32)C1								69.8	77.3	62.8	60.3	57.5				> 4	> 4	3.3	> 4	> 4
Cc1c(NC(=O)c2cccnc2)cccc1-c1cc2[nH]cnc2c(Nc2ccc(C(=O)N3CCOCC3)cc2)n1	> 50	> 50	> 50	> 50	> 50	25.3	264	89	62.3	69.1	76.2	75.2	Active	inactive	Active					
Cc1cccc(-c2cc3[nH]cnc3c(Nc3ccc(C(=O)N4CCOCC4)cc3)n2)c1C	> 50	45.8	42	> 50	> 50									inactive						
Cc1c(NC(=O)c2cccc(C(C)(C)C)c2)cccc1-c1cc2[nH]cnc2c(Nc2ccc(C(=O)N3CCOCC3)cc2)n1	60.1	18.6	64	> 50	40.3	43.3	709	95.3	74.1	> 100	64.9	81								
Cc1c(NC(=O)c2ccccc2)cccc1-c1cc2[nH]cnc2c(Nc2ccc(C(=O)N3CCOCC3)cc2)n1	> 16.6	> 16.6	> 16.6	> 50	> 50	20.1	155	85.2	71.3	68.2	47	65.3								
Cc1c(NC(=O)c2ccccn2)cccc1-c1cc2[nH]cnc2c(Nc2ccc(C(=O)N3CCOCC3)cc2)n1	> 12.5	> 12.5	> 12.5	> 12.5	> 12.5	27.4	166	93.7	72.5	56.8	> 100	78.8								
Cc1c(NC(=O)c2c[nH]cn2)cccc1-c1cc2[nH]cnc2c(Nc2ccc(C(=O)N3CCOCC3)cc2)n1	> 50	> 50	> 50	> 50	> 25	27.2	79	94.6	76.5	80.8	68.3	36.6								
